# Experimental data: patent publication US6008245A, “Sulfonamide-substituted benzopyran derivatives, processes for their preparation, their use as a medicament, and pharmaceutical preparations comprising them” (priority 1997, dated 1999)
# Tested on: IKr
# Experiment: not given
# Details: class III antiarrhythmics; cited from earlier work
row,Structure (SMILES),IKr block
1,CC(C)NC[C@@H](O)c1ccc(NS(C)(=O)=O)cc1 [d-sotalol],block IKr predominantly or exclusively

# Tested on: K+ (ATP) channel
# Experiment: not given
# Details: known compounds; cited from earlier work
row,Structure (SMILES),action on ATP-sensitive K+ channels
1,CC1(C)Oc2ccc(C#N)cc2[C@@H](N2CCCC2=O)[C@@H]1O (relative stereo) [cromakalim],openers of ATP-sensitive K^+ channels

# Tested on: IKs
# Experiment: not given
# Details: cited from earlier work
row,Structure (SMILES),blocking action on the IKs
1,CN1CCN(CCCCN2C(=O)CN(/N=C/c3ccc(-c4ccc(Cl)cc4)o3)C2=O)CC1 [azimilide],blocking action on the IKs

# Biological target: T1, human IsK protein (UniProt P15382+P70057)
# T1 construct: expressed in transfected cells; host or cells: Xenopus laevis oocytes injected with in vitro synthesized IsK RNA
# Experiment: cell-based
# Details: human IsK expressed in Xenopus oocytes; voltage jumps to -10 mV lasting 15 s; pH 7.5; room temperature; Hill equation
row,Structure (SMILES),IC50
1,"CCCCOc1ccc2c(c1)[C@@H](N(C)S(C)(=O)=O)[C@H](OC(C)=O)C(C)(C)O2 (racemic) [Example 6, (±)-trans-N-(3-Acetoxy-6-butoxy-2,2-dimethylchroman-4-yl)-N-methyl-methanesulfonamide]",> 10000 nM
2,"CN([C@@H]1c2cc(OCc3ccccc3)ccc2OC(C)(C)[C@H]1O)S(C)(=O)=O (racemic) [Example 1, (±)-trans-N-(6-Benzyloxy-3-hydroxy-2,2-dimethylchroman-4-yl)-N-methylmethanesulfonamide]",200 nM
3,"CC(=O)O[C@H]1[C@H](N(C)S(C)(=O)=O)c2cc(OCCCC(F)(F)F)ccc2OC1(C)C (racemic) [Example 21, (±)-trans-N-[3-Acetoxy-6-(4,4,4-trifluorobutoxy)-2,2-dimethylchroman-4-yl]-N-methyl-methanesulfonamide]",~10000 nM
4,"CCCCOc1ccc2c(c1)C(N(CC)S(C)(=O)=O)=CC(C)(C)O2 [Example 15, N-(6-Butoxy-2,2-dimethyl-2H-chromen-4-yl)-N-ethyl-methanesulfonamide]",1300 nM
5,"CCS(=O)(=O)N(C)[C@@H]1c2cc(OCc3ccccc3)ccc2OC(C)(C)[C@H]1O [Example 17, (3S, 4R)-(-)-N-(6-Benzyloxy-3-hydroxy-2,2-dimethylchroman-4-yl)-N-methyl-ethanesulfonamide]",400 nM
6,"CCCOc1ccc2c(c1)C(N(C)S(C)(=O)=O)=CC(C)(C)O2 [Example 9, N-(6-Propoxy-2,2-dimethyl-2H-chromen-4-yl)-N-methyl-methanesulfonamide]",2600 nM
7,"CCCCOc1ccc2c(c1)[C@@H](N(C)S(C)(=O)=O)[C@H](O)C(C)(C)O2 [Example 16, (3S, 4R)-(-)-N-(6-Butoxy-3-hydroxy-2,2-dimethylchroman-4-yl)-N-methyl-methanesulfonamide]",400 nM
8,"CCCCOc1ccc2c(c1)[C@@H](N(CC)S(C)(=O)=O)[C@H](O)C(C)(C)O2 (racemic) [Example 14, (±)-trans-N-(6-Butoxy-3-hydroxy-2,2-dimethylchroman-4-yl)-N-ethyl-methanesulfonamide]",200 nM
9,"COC(=O)CN([C@@H]1c2cc(OCc3ccccc3)ccc2OC(C)(C)[C@H]1O)S(C)(=O)=O (racemic) [Example 12, Methyl (±)-trans-[(6-benzyloxy-3-hydroxy-2,2-dimethylchroman-4-yl)-methanesulfonylamino]acetate]",800 nM
10,"CCCCOc1ccc2c(c1)[C@@H](N(C)S(C)(=O)=O)[C@H](O)C(C)(C)O2 (racemic) [Example 5, (±)-trans-N-(6-Butoxy-3-hydroxy-2,2-dimethylchroman-4-yl)-N-methyl-methanesulfonamide]",250 nM
11,"CCCCN([C@@H]1c2cc(OCc3ccccc3)ccc2OC(C)(C)[C@H]1O)S(C)(=O)=O (racemic) [Example 10, (±)-trans-N-(6-Benzyloxy-3-hydroxy-2,2-dimethylchroman-4-yl)-N-butyl-methanesulfonamide]",400 nM
12,CCCCN(C1=CC(C)(C)Oc2ccc(OCc3ccccc3)cc21)S(C)(=O)=O [Example 11],1600 nM
13,"CN(C1=CC(C)(C)Oc2ccc(OCc3ccccc3)cc21)S(C)(=O)=O [Example 4, N-(6-Benzyloxy-2,2-dimethyl-2H-chromen-4-yl)-N-methyl-methanesulfonamide]",1600 nM
14,"CN(C1=CC(C)(C)Oc2ccc(OCCCC(F)(F)F)cc21)S(C)(=O)=O [Example 22, N-[6-(4,4,4-Trifluorobutoxy)-2,2-dimethyl-2H-chromen-4-yl]-N-methyl-methanesulfonamide]",600 nM
15,"CO[C@H]1[C@H](N(C)S(C)(=O)=O)c2cc(OCc3ccccc3)ccc2OC1(C)C (racemic) [Example 3, (±)-trans-N-(6-Benzyloxy-3-methoxy-2,2-dimethylchroman-4-yl)-N-methyl-methanesulfonamide]",6500 nM
16,"CC1(C)Oc2ccc(OCCCC(F)(F)F)cc2[C@H](NS(C)(=O)=O)[C@H]1O [Example 23a, (3R,4S)-N-[3-Hydroxy-2,2-dimethyl-6-(4,4,4-trifluoro-butoxy)-chroman-4-yl]-methanesulfonamide]",1700 nM
17,"CCS(=O)(=O)N(C)[C@H]1c2cc(OCCCC(F)(F)F)ccc2OC(C)(C)[C@@H]1O [Example 18, (3R, 4S)-(+)-N-[-3-Hydroxy-2,2-dimethyl-6-(4,4,4-trifluorobutoxy)chroman-4-yl]-N-methyl-ethanesulfonamide]",100 nM
18,"CCCCOc1ccc2c(c1)C(N(C)S(C)(=O)=O)=CC(C)(C)O2 [Example 7, N-(6-Butoxy-2,2-dimethyl-2H-chromen-4-yl)-N-methyl-methanesulfonamide]",1600 nM
19,"CC(=O)O[C@H]1[C@H](N(C)S(C)(=O)=O)c2cc(OCc3ccccc3)ccc2OC1(C)C (racemic) [Example 2, (±)-trans-N-(6-Benzyloxy-3-acetoxy-2,2-dimethylchroman-4-yl)-N-methyl-methanesulfonamide]",13000 nM
